In ChEMBL document CHEMBL5321223, “Effects and mechanism of action of Chrysanthemum morifolium (Jinsi Huangju) on hyperlipidemia and non-alcoholic fatty liver disease” (Eur J Med Chem, 2023):
Activity calls are given as the source filed them. The calls are words filed in the database; no cut-off is given here.

What was measured:
Mus musculus [1] = test: Hypolipidemic activity in 24hrs fasted tyloxapol induced NAFLD Kunming mouse model assessed as decrease in serum TC level at 50 to 200 mg/kg, IG and measured after 24 hrs by biochemical analysis relative to control; type: functional, organism-based; conditions: dose 50-200 mg/kg
Mus musculus [2] = test: Hypolipidemic activity in 24hrs fasted tyloxapol induced NAFLD Kunming mouse model assessed as decrease in hepatic LDL-C level at 50 to 200 mg/kg, IG and measured after 24 hrs by biochemical analysis relative to control; type: functional, organism-based; conditions: dose 50-200 mg/kg
HepG2 [3] = test: Activation of AMPK signaling pathway in human HepG2 cells assessed as increase in AMPK phosphorylation at 0.2 to 50 uM by Western blot analysis; type: cell-based; conditions: filed as activator, dose 0.2-50 µM
Mus musculus [4] = test: Reduction in liver damage in 24hrs fasted tyloxapol induced NAFLD Kunming mouse model assessed as decrease in serum ALT level at 50 to 200 mg/kg, IG and measured after 24 hrs by biochemical analysis relative to control; type: functional, organism-based; conditions: dose 50-200 mg/kg
Mus musculus [5] = test: Reduction in oxidative stress in 24hrs fasted tyloxapol induced NAFLD Kunming mouse model assessed as increase in serum SOD level at 50 to 200 mg/kg, IG and measured after 24 hrs by biochemical analysis relative to control; type: functional, organism-based; conditions: dose 50-200 mg/kg
Mus musculus [6] = test: Hypolipidemic activity in 24hrs fasted tyloxapol induced NAFLD Kunming mouse model assessed as increase in hepatic HDL-C level at 50 to 200 mg/kg, IG and measured after 24 hrs by biochemical analysis relative to control; type: functional, organism-based; conditions: dose 50-200 mg/kg
Mus musculus [7] = test: Amelioration of hepatic lesion in 24hrs fasted tyloxapol induced NAFLD Kunming mouse model assessed as reduction in hepatic steatosis at 50 to 200 mg/kg, IG by Oil red O staining based analysis; type: functional, organism-based; conditions: dose 50-200 mg/kg
HepG2 [8] = test: Hypolipidemic activity in sodium oleate and sodium palmitate induced human HepG2 cells assessed as decrease in intracellular triglyceride level at 1 uM; type: functional; parameters: scale not given: the % may be the effect or the level left
Mus musculus [9] = test: Amelioration of hepatic lesion in 24hrs fasted tyloxapol induced NAFLD Kunming mouse model assessed as reduction in liver index at 50 to 200 mg/kg, IG; type: functional, organism-based; conditions: dose 50-200 mg/kg
Mus musculus [10] = test: In vivo activation of AMPK pathway in 24hrs fasted tyloxapol induced NAFLD Kunming mouse model assessed as increase in AMPK phosphorylation in liver at 200 mg/kg, IG and measured after 24 hrs by Western blot anlaysis; type: functional, organism-based
HepG2 [11] = test: Hypolipidemic activity in sodium oleate and sodium palmitate induced human HepG2 cells assessed as decrease in intracellular lipid content at 0.2 uM by Oil Red O staining based assay; type: functional, cell-based
Mus musculus [12] = test: Hypolipidemic activity in 24hrs fasted tyloxapol induced NAFLD Kunming mouse model assessed as decrease in hepatic TG level at 50 to 200 mg/kg, IG and measured after 24 hrs by biochemical analysis relative to control; type: functional, organism-based; conditions: dose 50-200 mg/kg
HepG2 [13] = test: Hypolipidemic activity in sodium oleate and sodium palmitate induced human HepG2 cells assessed as decrease in intracellular triglyceride level at 10 uM; type: functional; parameters: scale not given: the % may be the effect or the level left
HepG2 [14] = test: Hypolipidemic activity in sodium oleate and sodium palmitate induced human HepG2 cells assessed as decrease in intracellular triglyceride level at 5 uM; type: functional; parameters: scale not given: the % may be the effect or the level left
Mus musculus [15] = test: Amelioration of hepatic lesion in 24hrs fasted tyloxapol induced NAFLD Kunming mouse model assessed as reduction in fat deposition at 50 to 200 mg/kg, IG by H and E staining based analysis; type: functional, organism-based; conditions: dose 50-200 mg/kg
Mus musculus [16] = test: Amelioration of hepatic lesion in 24hrs fasted tyloxapol induced NAFLD Kunming mouse model assessed as reduction in hepatic steatosis at 50 to 200 mg/kg, IG by H and E staining based analysis; type: functional, organism-based; conditions: dose 50-200 mg/kg
Mus musculus [17] = test: Reduction in liver damage in 24hrs fasted tyloxapol induced NAFLD Kunming mouse model assessed as decrease in serum AST level at 50 to 200 mg/kg, IG and measured after 24 hrs by biochemical analysis relative to control; type: functional, organism-based; conditions: dose 50-200 mg/kg
Mus musculus [18] = test: Reduction in liver damage in 24hrs fasted tyloxapol induced NAFLD Kunming mouse model assessed as decrease in ALT level in liver at 50 to 200 mg/kg, IG and measured after 24 hrs by biochemical analysis relative to control; type: functional, organism-based; conditions: dose 50-200 mg/kg
Mus musculus [19] = test: Hypolipidemic activity in 24hrs fasted tyloxapol induced NAFLD Kunming mouse model assessed as decrease in spleen index at 50 to 200 mg/kg, IG relative to control; type: functional, organism-based; conditions: dose 50-200 mg/kg
[20] = target: T1, Pancreatic triacylglycerol lipase (Homo sapiens) (UniProt P16233); test: Inhibition of Pancreatic lipase (unknown origin) using 4-methylumbelleallyl oleate as substrate at 50 uM by microplate reader assay
T1 sequence (whole entry): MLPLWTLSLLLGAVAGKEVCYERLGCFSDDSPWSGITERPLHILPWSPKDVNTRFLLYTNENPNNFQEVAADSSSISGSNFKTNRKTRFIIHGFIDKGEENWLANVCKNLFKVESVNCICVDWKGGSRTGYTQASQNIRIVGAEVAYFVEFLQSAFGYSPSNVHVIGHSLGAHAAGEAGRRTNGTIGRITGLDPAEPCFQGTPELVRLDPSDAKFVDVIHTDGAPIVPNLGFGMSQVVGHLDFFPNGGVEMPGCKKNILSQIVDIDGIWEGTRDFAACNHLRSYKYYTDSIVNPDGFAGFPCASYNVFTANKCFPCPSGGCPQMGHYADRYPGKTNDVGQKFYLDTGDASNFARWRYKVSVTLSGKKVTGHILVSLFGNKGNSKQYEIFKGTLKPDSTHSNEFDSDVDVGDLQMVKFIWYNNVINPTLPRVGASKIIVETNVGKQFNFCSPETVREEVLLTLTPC

[21] = target: T1, Pancreatic triacylglycerol lipase (Homo sapiens); test: Inhibition of Pancreatic lipase (unknown origin) using 4-methylumbelleallyl oleate as substrate at 5 uM by microplate reader assay
Mus musculus [22] = test: Reduction in liver damage in 24hrs fasted tyloxapol induced NAFLD Kunming mouse model assessed as decrease in AST level in liver at 50 to 200 mg/kg, IG and measured after 24 hrs by biochemical analysis relative to control; type: functional, organism-based; conditions: dose 50-200 mg/kg
[23] = Reduction in hepatic inflammation in 24hrs fasted tyloxapol induced NAFLD Kunming mouse model assessed as decrease in IL-6 level in liver at 200 mg/kg, IG and measured after 24 hrs; type: functional; parameters: scale not given: the % may be the effect or the level left
Mus musculus [24] = test: Hypolipidemic activity in 24hrs fasted tyloxapol induced NAFLD Kunming mouse model assessed as decrease in serum LDL-C level at 50 to 200 mg/kg, IG and measured after 24 hrs by biochemical analysis relative to control; type: functional, organism-based; conditions: dose 50-200 mg/kg
HepG2 [25] = test: Activation of AMPK signaling pathway in human HepG2 cells assessed as increase in ACC phosphorylation at 0.2 to 50 uM by Western blot analysis; type: cell-based; conditions: filed as activator, dose 0.2-50 µM
Mus musculus [26] = test: Hypolipidemic activity in 24hrs fasted tyloxapol induced NAFLD Kunming mouse model assessed as decrease in hepatic TC level at 50 to 200 mg/kg, IG and measured after 24 hrs by biochemical analysis relative to control; type: functional, organism-based; conditions: dose 50-200 mg/kg
HepG2 [27] = test: Hypolipidemic activity in sodium oleate and sodium palmitate induced human HepG2 cells assessed as decrease in intracellular lipid content at 5 uM by Oil Red O staining based assay; type: functional; parameters: scale not given: the % may be the effect or the level left
Mus musculus [28] = test: Hypolipidemic activity in 24hrs fasted tyloxapol induced NAFLD Kunming mouse model assessed as decrease in epididymis in white adipose tissue at 200 mg/kg, IG relative to control; type: functional, organism-based
HepG2 [29] = test: Hypolipidemic activity in sodium oleate and sodium palmitate induced human HepG2 cells assessed as decrease in intracellular triglyceride level at 50 uM; type: functional; parameters: scale not given: the % may be the effect or the level left
[30] = Reduction in hepatic inflammation in 24hrs fasted tyloxapol induced NAFLD Kunming mouse model assessed as decrease in IL-6 level in liver at 50 mg/kg, IG and measured after 24 hrs; type: functional; parameters: scale not given: the % may be the effect or the level left
HepG2 [31] = test: Anti-hyperglycemic activity in 24 hrs serum deprived human HepG2 cells assessed as alleviation in insulin resistance by measuring increase in cellular glucose consumption at 0.2 to 50 uM and measured after 24 hrs by glucose kit anlaysis; type: functional, cell-based; conditions: dose 0.2-50 µM
Mus musculus [32] = test: Hypolipidemic activity in 24hrs fasted tyloxapol induced NAFLD Kunming mouse model assessed as increase in serum HDL-C level at 50 to 200 mg/kg, IG and measured after 24 hrs by biochemical analysis relative to control; type: functional, organism-based; conditions: dose 50-200 mg/kg
HepG2 [33] = test: Hypolipidemic activity in sodium oleate and sodium palmitate induced human HepG2 cells assessed as decrease in intracellular lipid content at 50 uM by Oil Red O staining based assay; type: functional; parameters: scale not given: the % may be the effect or the level left
Mus musculus [34] = test: Hypolipidemic activity in 24hrs fasted tyloxapol induced NAFLD Kunming mouse model assessed as decrease in serum TG level at 50 to 200 mg/kg, IG and measured after 24 hrs by biochemical analysis relative to control; type: functional, organism-based; conditions: dose 50-200 mg/kg
Mus musculus [35] = test: Amelioration of hepatic lesion in 24hrs fasted tyloxapol induced NAFLD Kunming mouse model assessed as reduction in liver morphology alteration at 50 to 200 mg/kg, IG; type: functional, organism-based; conditions: dose 50-200 mg/kg
HepG2 [36] = test: Hypolipidemic activity in sodium oleate and sodium palmitate induced human HepG2 cells assessed as decrease in intracellular lipid content at 0.2 to 50 uM by Oil Red O staining based assay; type: functional, cell-based; conditions: dose 0.2-50 µM
Mus musculus [37] = test: Reduction in oxidative stress in 24hrs fasted tyloxapol induced NAFLD Kunming mouse model assessed as decrease in hepatic MPO level at 50 to 200 mg/kg, IG and measured after 24 hrs by biochemical analysis relative to control; type: functional, organism-based; conditions: dose 50-200 mg/kg
[38] = Reduction in hepatic inflammation in 24hrs fasted tyloxapol induced NAFLD Kunming mouse model assessed as decrease in IL-6 level in liver at 100 mg/kg, IG and measured after 24 hrs; type: functional; parameters: scale not given: the % may be the effect or the level left
HepG2 [39] = test: Hypolipidemic activity in sodium oleate and sodium palmitate induced human HepG2 cells assessed as decrease in intracellular triglyceride level at 0.2 uM; type: functional; parameters: scale not given: the % may be the effect or the level left
HepG2 [40] = test: Cytotoxicity against human HepG2 cells assessed as reduction in cell survival at 50 uM; type: toxicity, cell-based; conditions: hepg2, 50 µM
Mus musculus [41] = test: In vivo activation of AMPK pathway in 24hrs fasted tyloxapol induced NAFLD Kunming mouse model assessed as increase in ACC phosphorylation in liver at 200 mg/kg, IG and measured after 24 hrs by Western blot anlaysis; type: functional, organism-based
Mus musculus [42] = test: Amelioration of hepatic lesion in 24hrs fasted tyloxapol induced NAFLD Kunming mouse model assessed as reduction in fat deposition at 50 to 200 mg/kg, IG by Oil red O staining based analysis; type: functional, organism-based; conditions: dose 50-200 mg/kg

O=C(O)CC(=O)OC[C@H]1O[C@@H](Oc2cc(O)c3c(=O)cc(-c4ccc(O)cc4)oc3c2)[C@H](O)[C@@H](O)[C@@H]1O
Activity (Mus musculus [1]): Active
Activity (Mus musculus [2]): Active
Activity (HepG2 [3]): Active
Activity (Mus musculus [4]): Active
Activity (Mus musculus [5]): Active
Activity (Mus musculus [6]): Active
Activity (Mus musculus [7]): Active
Activity (HepG2 [8]): 52.2%
Activity (Mus musculus [9]): Active
Activity (Mus musculus [10]): Active
Activity (HepG2 [11]): Active
Activity (Mus musculus [12]): Active
Activity (HepG2 [13]): 55.1%
Activity (HepG2 [14]): 54.7%
Activity (Mus musculus [15]): Active
Activity (Mus musculus [16]): Active
Activity (Mus musculus [17]): Active
Activity (Mus musculus [18]): Active
Activity (Mus musculus [19]): Active
inhibition [20]: 47.2%
inhibition [21]: 35%
Activity (Mus musculus [22]): Active
Activity [23]: 18.03%
Activity (Mus musculus [24]): Active
Activity (HepG2 [25]): Active
Activity (Mus musculus [26]): Active
Activity (HepG2 [27]): 74.9%
Activity (Mus musculus [28]): Active
Activity (HepG2 [29]): 73%
Activity [30]: 23.68%
Activity (HepG2 [31]): Active
Activity (Mus musculus [32]): Active
Activity (HepG2 [33]): 67.3%
Activity (Mus musculus [34]): Active
Activity (Mus musculus [35]): Active
Activity (HepG2 [36]): Dose-Dependent Effect
Activity (Mus musculus [37]): Active
Activity [38]: 22.44%
Activity (HepG2 [39]): 48.6%
Activity (HepG2 [40]): Non-Toxic
Activity (Mus musculus [41]): Active
Activity (Mus musculus [42]): Active

O=c1cc(-c2ccc(O)c(O)c2)oc2cc(O)cc(O)c12 [LUTEOLIN]
inhibition [20]: 41.2%
inhibition [21]: 27.4%
Activity (HepG2 [27]): 91.6%
Activity (HepG2 [40]): Toxic
